# Reference: article PMC12275099, “VX-445 (elexacaftor) inhibits chloride secretion across human bronchial epithelial cells by directly blocking KCa3.1 channels” (PNAS Nexus, 2025)
# “And” between values parts separate entries of the source, which are not always exact repeats. Equal values may be shown once.
# How the values were obtained:
# [1] = molecular target: T1, KCa3.1 (Homo sapiens, UniProt O15554); test: Excised inside-out patch-clamp on HEK-KCa3.1; format: biochemical
# T1 construct: expressed in transfected cells
# Experimental: Our Isc results are consistent with VX-445 inhibiting KCa3.1 in HBEs. To directly assess this possibility, we initially carried out whole-cell patch-clamp studies on undifferentiated HBEs. […] Upon application of 10 µM VX-445, a majority of this current was inhibited, averaging 87 ± 4% (n = 3, P < 0.005; Fig. 3B). A summary of the current–voltage (I–V) relationship—normalized to cell capacitance—is shown in Fig. 3C, which also includes the whole-cell I–V in the presence of Tram-34. […] To ensure isolation of KCa3.1 currents and to more fully characterize this VX-445-dependent inhibition of KCa3.1, we utilized HEK cells heterologously expressing KCa3.1 (HEK-KCa3.1). Initially, we confirmed our results from HBEs, using whole-cell recordings, as above. […] In seven experiments, this inhibition averaged 58 ± 7% (P < 0.005). […] It is well recognized that drugs are carried to their targets in the blood bound to albumin, which ranges from 3.4 to 5.4%. Thus, we determined whether VX-445 (10 µM) would inhibit KCa3.1 expressed in HEK cells in the presence of 3.4% albumin. In four experiments, VX-445 inhibited an average of 51 ± 17% of the whole-cell KCa3.1 current, which is not different from that observed in the absence of albumin. To confirm the direct effect of VX-445 on KCa3.1, we utilized the excised, inside-out patch-clamp technique. The patch was then exposed to DCEBIO (100 µM) to further activate the channels ([34–37])—analogous to our Isc studies in HBEs. […] In three experiments, VX-445 inhibited an average of 63 ± 6% of the KCa3.1 current. Based on these experiments, we determined the apparent inhibitory constant, Ki for VX-445. For these experiments, patches were excised into saturating Ca^2+ (3 µM) to ensure maximal KCa3.1 activation. These studies were carried out in the absence of DCEBIO to eliminate the possibility that the inhibition observed was due to competition for the DCEBIO-binding site.
# (§1) HEK cells stably expressing KCa3.1 (IK1, SK4), KCa2.3 (SK3), and KCa2.2 (SK2) were generated and cultured as previously described by us ([37], [66–71]).
# (§2) HEK cells expressing the channel of interest were plated onto poly-L-lysine-coated glass coverslips 1–2 days prior to patch-clamp analysis. Electrophysiological recordings in the excised, inside-out, and whole-cell patch-clamp configurations were performed as recently described ([14]). For excised patch-clamp recordings, the pipette solution contained (in mM): 140 K-gluconate, 5 KCl, 1 CaCl2, 1 MgCl2, and 10 HEPES. The pH was adjusted to 7.2 with KOH. The bath solution contained (in mM): 145 K-gluconate, 5 KCl, 1.3 MgCl2, 10 HEPES, and 1 EGTA. Sufficient CaCl2 was added to obtain the desired free Ca^2+ concentration at a pH of 7.2 (adjusted with KOH). When recording KCa3.1 channels, ATP (300 µM) was added to the bath to diminish channel rundown ([73]). All recordings were carried out at a voltage of −100 mV, referenced to the extracellular compartment, as is standard. The apparent Ki and Hill coefficient for each CFTR corrector on KCa3.1, KCa2.3, and KCa2.2 were determined during a continuous recording by step-wise addition of increasing concentrations of compound and fitting the resultant relative remaining current to a Hill equation (Prism v. 10.1.0). The zero current level was determined by the addition of a 0 Ca^2+ solution (zero-added Ca^2+ plus 1 mM EGTA) at the end of the experiment. In the case of KCa3.1, TRAM-34, a known inhibitor of KCa3.1 ([45]), was used to confirm expression of the channel. For whole-cell experiments, pipettes contained (in mM): 145 K-gluconate, 10 EGTA, 7.5 CaCl2, 2 MgCl2, 3 mM NaATP, and 10 HEPES. The bath solution contained (in mM): 140 K-gluconate, 5 KCl, 1.0 MgCl2, 10 HEPES, and 2 CaCl2. Current–voltage relationships were determined by stepping from a holding potential of −80 mV to +80 mV in 20 mV increments for 400 ms. […]
# [2] = molecular target: KCa2.2 (Rattus norvegicus, UniProt P70604); test: Excised inside-out patch-clamp on HEK cells expressing KCa2.2; format: biochemical; details: 1 µM free Ca2+
# Experimental: (§3) As above, we performed excised patch-clamp recordings on HEK cells heterologously expressing KCa2.3 or KCa2.2, in order to assess the activity of C2 CFTR corrector compounds. […] In contrast, the subsequent addition of 10 µM VX-659 yielded an almost complete inhibition of KCa2.3 currents, averaging 91 ± 3% (n = 4).
# as §1
# HEK cells expressing the channel of interest were plated onto poly-L-lysine-coated glass coverslips 1–2 days prior to patch-clamp analysis. […] The apparent Ki and Hill coefficient for each CFTR corrector on KCa3.1, KCa2.3, and KCa2.2 were determined during a continuous recording by step-wise addition of increasing concentrations of compound and fitting the resultant relative remaining current to a Hill equation (Prism v. 10.1.0). The zero current level was determined by the addition of a 0 Ca^2+ solution (zero-added Ca^2+ plus 1 mM EGTA) at the end of the experiment. […] Current–voltage relationships were determined by stepping from a holding potential of −80 mV to +80 mV in 20 mV increments for 400 ms. The middle 300 ms of each trace was selected to avoid any influence of capacitive transients, and average currents were calculated for each voltage via the I–V tool in Clampfit. […]
# [3] = system: BKCa (KCa1.1, KCNMA1) channels; design: method as in PMID 38954478; details: primary HBEs and HEK cells heterologously expressing the channel; cited from earlier work
# [4] = molecular target: KCa2.3 (Homo sapiens, UniProt Q9UGI6); test: Excised inside-out patch-clamp on HEK cells expressing KCa2.3; format: biochemical
# Experimental: as §3, §1
# as §2, with “In the case of KCa3.1, TRAM-34, a known inhibitor of KCa3.1 ([45]), was used to confirm expression of the channel. For whole-cell experiments, pipettes contained (in mM): 145 K-gluconate, 10 EGTA, 7.5 CaCl2, 2 MgCl2, 3 mM NaATP, and 10 HEPES. The bath solution contained (in mM): 140 K-gluconate, 5 KCl, 1.0 MgCl2, 10 HEPES, and 2 CaCl2.” left out, “ms. The middle 300 ms of each trace was selected to avoid any influence of capacitive transients, and average currents were calculated for each voltage via the I–V tool in Clampfit.” for “ms.”
# Chain of KCa2.3 (Q9UGI6 whole entry): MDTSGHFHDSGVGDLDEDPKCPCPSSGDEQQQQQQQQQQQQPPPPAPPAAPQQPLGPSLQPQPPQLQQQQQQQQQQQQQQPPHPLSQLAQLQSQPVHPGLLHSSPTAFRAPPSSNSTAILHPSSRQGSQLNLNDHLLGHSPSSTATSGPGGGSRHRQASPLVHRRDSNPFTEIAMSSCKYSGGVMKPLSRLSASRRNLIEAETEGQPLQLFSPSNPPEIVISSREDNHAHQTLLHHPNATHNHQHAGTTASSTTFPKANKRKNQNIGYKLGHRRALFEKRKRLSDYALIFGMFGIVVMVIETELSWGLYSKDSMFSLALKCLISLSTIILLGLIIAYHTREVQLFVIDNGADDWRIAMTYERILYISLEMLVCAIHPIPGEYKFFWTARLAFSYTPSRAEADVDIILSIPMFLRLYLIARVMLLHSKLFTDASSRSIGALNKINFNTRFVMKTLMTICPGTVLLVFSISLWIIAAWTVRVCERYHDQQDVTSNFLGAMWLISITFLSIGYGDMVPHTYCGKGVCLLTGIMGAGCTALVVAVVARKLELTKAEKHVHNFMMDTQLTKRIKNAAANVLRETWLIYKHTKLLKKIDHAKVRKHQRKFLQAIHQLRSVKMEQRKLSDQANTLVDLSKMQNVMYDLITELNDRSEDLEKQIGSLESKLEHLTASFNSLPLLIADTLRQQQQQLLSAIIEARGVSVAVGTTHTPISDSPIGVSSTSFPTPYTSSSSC
# Chain of KCa2.2 (P70604 whole entry): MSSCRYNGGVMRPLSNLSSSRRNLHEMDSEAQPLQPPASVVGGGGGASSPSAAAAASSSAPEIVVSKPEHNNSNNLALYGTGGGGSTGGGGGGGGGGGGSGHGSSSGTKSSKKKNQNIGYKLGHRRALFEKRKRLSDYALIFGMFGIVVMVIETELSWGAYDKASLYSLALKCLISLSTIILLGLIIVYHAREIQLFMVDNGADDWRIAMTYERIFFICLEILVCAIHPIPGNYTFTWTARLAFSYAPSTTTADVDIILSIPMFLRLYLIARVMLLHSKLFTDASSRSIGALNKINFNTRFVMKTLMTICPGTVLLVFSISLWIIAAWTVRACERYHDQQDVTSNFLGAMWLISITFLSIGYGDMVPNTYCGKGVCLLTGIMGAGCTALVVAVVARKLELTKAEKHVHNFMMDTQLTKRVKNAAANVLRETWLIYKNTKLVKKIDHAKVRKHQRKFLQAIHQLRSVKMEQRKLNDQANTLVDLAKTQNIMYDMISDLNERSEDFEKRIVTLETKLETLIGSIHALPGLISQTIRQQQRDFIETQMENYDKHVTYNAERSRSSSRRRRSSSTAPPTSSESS
compound,measurement,setting,value
"C[C@@H]1CN(c2nc(-n3ccc(OCCC4(C(F)(F)F)CC4)n3)ccc2C(=O)NS(=O)(=O)c2ccccc2)C(C)(C)C1 [VX-659, bamocaftor]",Hill coefficient,"[1]; 3 µM free Ca2+, absence of DCEBIO",1.8
same,Ki,"[1]; 3 µM free Ca2+, absence of DCEBIO, Hill fit, n = 4, read-out: apparent Ki",0.89 µM and 0.9 µM
same,inhibition at 10 µM,"[1]; 10 µM compound after DCEBIO 100 µM, 1 µM free Ca2+, three experiments, read-out: inhibition of KCa3.1 current in excised patch",98 ± 1%
same,selectivity among KCNN gene family members,[1]; KCa3.1 versus KCa2.2 and KCa2.3,inhibits all members of the KCNN gene family with a similar affinity
same,relative remaining current,"[1]; [VX-659] 0.3, Fig 4G single experiments",89 and 100 and 78 and 88
same,Hill coefficient,[2],1.6 and 2.1
same,effect on BKCa,[3],weakly potentiates
same,Hill coefficient,[4]; 1 µM free Ca2+,1.9 and 1.3
same,inhibition at 10 µM,[4]; read-out: inhibition of KCa2.3 currents,91 ± 3%
